The values that follow come from a melting point compilation (Tetko et al.; mined from patent text by program, amines drawn as free bases though some values may be those of a salt).

Residues, ends and D or L forms follow the SMILES beside them.

Regarding `CSc1cc(SC)c(N)c(SC)c1N`, the melting point is 114 to 116 °C. With `COC(=O)c1cc(O)cc(O)c1C` the figure was 136 to 138 °C; with `Clc1cc(Nc2nnc(-c3ccc4nonc4c3)s2)ccc1Br`, 326 to 327 °C.

`CCNc1ncccc1C(=O)Nc1c(C)ccnc1Cl` came in with a melting point of 122 to 124 °C. Compound `CC(C)(C)OC(=O)N[C@H](C(=O)N1CCC[C@H]1C(=O)NC1CCc2nc(N)sc2C1)C(c1ccccc1)c1ccccc1` (stereo partly drawn) showed a melting point of 127 to 130 °C. `CCOC(=O)CC(c1ccccc1)(c1ccccc1)c1ncc[nH]1` came in with a melting point of 75 °C. Turning to `CCCS(=O)(=O)N=C(N[N+](=O)[O-])SC`, the melting point fell in the range of 91 to 93 °C. In the case of `O=C(CN1CCCCC1)Nc1ccc2cc3ccc(NC(=O)CN4CCCCC4)cc3nc2c1`, the melting point was 192 to 194 °C. As for `O=C(O)c1ccc(CN(C(=O)Nc2cc(C(F)(F)F)cc(C(F)(F)F)c2)c2ccc(C3CCCCC3)cc2)cc1`, the melting point lay within 148 to 150 °C. `CC(C)C[C@@H](C(=O)NCCCC(c1ccc(F)cc1)c1ccc(F)cc1)N1CCCCC1` returned a melting point of 52 to 70 °C. Compound `COc1ccc(NC(C)=C(C#N)C#N)cc1` yielded a melting point of 254 to 255 °C. `Cc1ccc(C(=O)c2c(C)cc(C)cc2OCC(O)CNC(C)C)cc1` (stereo not drawn) gave a melting point of 89 to 91 °C. Take `COC(=O)c1ccc(-c2nc3ccccc3o2)cc1`: the melting point fell in the range of 190 to 191 °C. Take `COC(=O)c1c(SCc2ccc(OC)cc2)ncn1Cc1cc2c(cc1Cl)OCO2`: the melting point was determined as 123 °C.

`COc1ccc(-c2cccs2)c2c(OC)ccc(-c3cccs3)c12`: the melting point lay within 216 to 218 °C.

For `CCc1cc2c(=O)c3cccc(C(=O)OC)c3n(Cc3ccc(-c4ccccc4-c4nnn[nH]4)cc3)c2s1`, the melting point fell in the range of 228 to 231 °C.

Compound `C=C(F)c1c(C(=O)OC)nc(Cl)c(F)c1N` registered a melting point of 98 to 100 °C. Consider `CC1CCC(=NNc2ccccc2)c2ncc(C(=O)NN)c(=O)n21` (stereo not drawn), for which the melting point lay in the range of 205 to 207 °C. `CS(=O)(=O)c1ccc(-c2cnn(CC=C(Cl)Cl)c(=O)c2-c2ccc(F)cc2)cc1` came in with a melting point of 150 to 152 °C. Compound `Cc1cc(CO)cc([N+](=O)[O-])c1` displayed a melting point of 56.8 to 57.9 °C.

Turning to `O=C(O)c1cc2cc(Cl)ccc2nc1N[C@@H](Cc1ccc(Oc2ccc(Br)cn2)cc1)C(=O)O`, the melting point fell in the range of 145 to 150 °C. To `COC(=O)c1sc2c(c1N)c1ccccc1c(=O)n2-c1ccccc1C` belongs 236 to 237 °C. Turning to `CCCCNC(=O)c1cc(-c2csc(-c3ccc([N+](=O)[O-])cc3)n2)n(CC2CCCCC2)c1C`, the melting point is 184 to 187 °C.

As to `O=C1N(Cc2ccc(Cl)s2)c2ccccc2C12COc1ccc(Br)cc12` (stereo not drawn), the melting point fell in the range of 140 to 142 °C. Compound `c1ccc(N2CCOCC2)c(N=C2NCCN2)c1` came in with a melting point of 185 to 186 °C.

For `O=C(O)c1ccc(-c2ccc(Cl)cc2)cn1`, the melting point was above 260 °C. Compound `CCOC(=O)C(Oc1cc(N)c(Cl)cc1C(=O)NCCN(CC)CC)c1ccccc1` (stereo not drawn) registered a melting point of 84 to 87 °C. With `COc1ccc(-c2cc(-c3ccc(OC)c(OC)c3)c(C#N)c(C)n2)cc1` the figure was 187 to 188 °C.

For the compound `CC(C)(C)OC(=O)N[C@@H](Cc1ccccc1)[C@@H](O)[C@@H](NCc1cccc2ccccc12)C(=O)O`, the melting point was 225 to 227 °C.

Compound `CS(=O)(=O)Nc1cccc(Nc2nc(NCc3ncc[nH]3)c3nc[nH]c3n2)c1` returned a melting point of 216 to 220 °C. Compound `COC(=O)[C@]1(F)[C@H]2[C@H](O)CC(=O)[C@H]21` showed a melting point of 61 to 62 °C. `COC(=O)[C@@H]1CSC(=S)N1CC(C)(C)SCc1ccc(OC)cc1` registered a melting point of 125 to 127 °C. With `COc1ccc(C(C)CC(=O)N2C(=O)OCC2C(C)C)cc1` (stereo not drawn) the figure was 62 to 63.5 °C; with `O=C(O)CNC(=O)c1ccc(C(=O)NS(=O)(=O)c2ccc(C(=O)NCCc3ccccc3)cc2)cn1`, 263 to 265 °C.

In the case of `COc1cc(CCC(=O)CC(=O)c2ccc3ccccc3c2)ccc1O`, the melting point lay within 101 to 102 °C. `CCn1cc(C(=O)O)c(=O)c2cc(F)c(N3CCNC(CN(C)C)C3)cc21` (stereo not drawn) had a melting point of 148 to 150 °C. `Cn1ccnc1-c1ccccc1Nc1nc(Nc2ccc3c(c2)C(C)(C)CCC(=O)N3)ncc1Cl`: the melting point worked out at 227 °C. Take `CCOC(=O)c1ccc(N)c(OCC#N)c1`: the melting point was 140 to 142 °C. As to `NC(=O)c1ccc(-c2nn(Cc3ccccc3)c3ccccc23)o1`, the melting point came out at 259 °C.

`CC(CO)N1c2ccccc2Sc2ccc(C(N)=S)cc21` (racemic): the melting point was determined as 152 °C. `CCc1nc(C#N)c(N2CCN(c3ccccc3)CC2)nc1C` gave a melting point of 99 to 101 °C. `COC(=O)C(Cc1ccccc1)NC(=O)C(CC(=O)O)NC(=O)C(N)CO` (stereo not drawn) (H-Ser-Asp-Phe-OMe; configuration not given here) came in with a melting point of 196 to 199 °C. Compound `FC(F)(F)c1ccc(/C=C/c2nc(COc3ccc(CCCn4ccnn4)cc3)co2)cc1` showed a melting point of 157 to 158 °C. In the case of `N#CC(CCN1CCC(C(=O)ON2C(=O)CCC2=O)(c2ccccc2)CC1)(c1ccccc1)c1ccccc1`, the melting point was 156 to 158 °C. The compound `O=C(O)C1=Cc2cc(Cl)cc(-c3cccs3)c2OC1C(F)(F)F` (stereo not drawn) showed a melting point of 258 to 259 °C. For the compound `CCOC(=O)/C=C/C=C/c1ccc(OC(C)C)cc1`, the melting point is 64 to 65 °C.

The compound `CC(=N)NS(=O)(=O)C=Cc1ccc(Cl)c(Cl)c1` came in with a melting point of 198 °C. To `N#Cc1ccc(Nn2cnnc2)cc1-c1ccc(C(F)(F)F)cc1` belongs 140 to 143 °C; to `C=CCc1cc(CN2C(=O)CCc3c2ccc(O)c3CC=C)cc(OC)c1O`, 159 to 161 °C; to `CCOC(=O)C1=CC(OCC)(C(C)C)N(c2ccc(Cl)cc2Cl)N1` (stereo not drawn), 105 to 110 °C. The compound `OCCN1CCC(Cc2ccccc2)CC1` gave a melting point of 62 to 64 °C. To `CCSc1ccc2c(c1)C(=O)Cc1ccccc1N2C` belongs 54 to 55 °C. The compound `Cc1ccccc1-c1ccc(C(=O)N2Cc3ccc(C(=O)NCc4ccccc4)n3Cc3ccccc32)cc1C` displayed a melting point of 138 to 141 °C. For the compound `CCc1cccc(CC(=O)O)c1OCCCc1cn(-c2ccc(C(F)(F)F)cn2)nc1C(C)C`, the melting point fell in the range of 155 to 156 °C. For `CCOC(=O)C(C)(C#N)Cc1cc([N+](=O)[O-])ccc1Cl` (stereo not drawn), the melting point was 72 to 74 °C. `CCOC(=O)C12CCNC(=O)CC1COC2=O` (stereo not drawn) showed a melting point of 137 to 138 °C. `OCc1c(Cl)ccc2nnsc12` had a melting point of 138 to 140 °C. To `O=C1NC(C(=O)NCCO[N+](=O)[O-])C(c2ccccc2)S1` (stereo not drawn) belongs 139 to 140 °C; to `CCCn1nc2c(N)nc3ncccc3c2c1CC(C)(C)C(N)=O`, 254 to 257 °C.

As for `CCCCOCC(O)COc1cc(C)c(OCC(O)COCCCC)cc1C` (stereo not drawn), the melting point is below 30 °C. Turning to `CCc1sc(N)nc1-c1cc(Br)no1`, the melting point is 151 to 152 °C. As for `O=c1nc(-c2cccc(CN3CCC(Cc4ccccc4)CC3)n2)sc2ccccc12`, the melting point is 151 to 153 °C.

The compound `CCN(CC)Cc1ccnc(F)c1CNC(=O)c1cnc2cc(I)ccc2n1` returned a melting point of 147 to 149 °C.

As usually defined, the melting point is the temperature, or range, at which the solid turns liquid.
